Results taken from US12653892B2, “Composition and method for new therapeutic agents including guanidinium-presenting dendrimers and branched structures” (priority 2020, dated 2026).
≈ marks a conversion by molar mass, not a printed value. Read-outs that look alike come from different tables or passages of the source.

What was measured:
S. aureus ATCC 29213 [1] = assay: MIC by broth microdilution, S. aureus ATCC 29213; assay type: cell-based; conditions: for MIC, Antibiotic +NH2-triguan-6C / MIC, Antibiotic +NO2-triamine-2C / MIC, Antibiotic +NO2-triamine-6C: non-covalent mixture
Method: (§1) Methods—Determination of MICs: MICs for S. aureus, E. faecium, E. coli, P aeruginosa, A. baumannii, K. pneumoniae were determined using broth microdilution in accordance with CLSI methods (Wiegand, I.; Hilpert, K.; Hancock, R. E. W. Agar and Broth Dilution Methods to Determine the Minimal Inhibitory Concentration (MIC) of Antimicrobial Substances. Nat. Protoc. 2008, 3, 163-175). One day prior to each MIC experiment, bacterial strains were streaked for single colonies on TSA plates from frozen glycerol stocks stored at −80° C. Three to five colonies from each plate were harvested with a disposable inoculating loop and resuspended in 500 μL of PBS to create a bacterial suspension. Alternatively, a single colony of the appropriate bacterial strain was added to 4 mL TSB for overnight growth at 37° C. with 200 rpm shaking to create a stationary phase bacterial suspension. The suspension was diluted in PBS to an OD600 of 0.1 (˜[…] CFU/ml), and the OD 0.1 suspension was diluted 1:100 in Mueller Hinton broth (MHB, Difco 257530) just prior to inoculating the 96-well polypropylene treatment plate (Costar 3879). A 50 μL portion of inoculum was added to a treatment plate containing 2-fold serial dilutions of compound in MHB (50 μL of treatment/well) to lend a final total volume of 100 μL/well and a final inoculum density of ˜5×10^5 CFU/ml. The completed assay plate was sealed with Parafilm, placed in a lidded plastic tray lined with moistened paper towels, and incubated at 37° C. for approximately 20 hours. The MIC was read as the lowest treatment concentration where no bacterial growth occurred, as determined by OD600 measurements on a microplate reader. If a different plate or media type was used for a particular test, this is noted below the respective table.

S. aureus ATCC 29213 [2] = conditions: cited from earlier work
K. pneumoniae BAA-2146 = assay: MIC by broth microdilution, K. pneumoniae BAA-2146; assay type: cell-based; conditions: Klebsiella pneumoniae, BAA2146
Method: as §1, with “A 50 μL portion of inoculum was added to a treatment plate containing 2-fold serial dilutions of compound in MHB (50 μL of treatment/well) to lend a final total volume of 100 μL/well and a final inoculum density of ˜5×10^5 CFU/ml. The completed assay plate was sealed with Parafilm, placed in a lidded plastic tray lined with moistened paper towels, and incubated at 37° C. for approximately 20 hours.” left out, “If a different plate or media type was used for a particular test, this is noted below the respective table.” left out

E. coli ATCC 25922 = assay: MIC by broth microdilution, E. coli ATCC 25922; assay type: cell-based; conditions: Escherichia coli, ATCC25922
Method: as §1

M. smegmatis = assay: MIC, resazurin readout, M. smegmatis; assay type: cell-based; conditions: Mycolicibacterium smegmatis
Method: (§2) MICs for C. glutamicum and the mycobacteria, M. smegmatis and M. abscessus, were determined as follows. A suspension of stationary phase culture was adjusted with PBS to approximately 10^8 CFU/mL and diluted 1:100 in nutrient media just prior to inoculating 96-well polystyrene treatment plates (Costar 3370). Nutrient media was Mueller Hinton Broth for C. glutamicum and Middlebrook media (Middlebrook 7H9 Broth with 0.2% glycerol and 10% OADC supplement, Difco, BD) for mycobacteria. A 50 μL portion of inoculum was added to a treatment plate containing 2-fold serial dilutions of compounds in the same media (50 μL of treatment/well) to lend a final total volume of 100 μL/well and a final inoculum density of ˜5×10^5 CFU/ml. The completed assay plate was sealed with Parafilm, placed in a lidded plastic tray lined with moistened paper towels, and incubated at 37° C. for around 22 h (C. glutamicum), 42-44 h (M. smegmatis) or 46-48 hours (M. abscessus). […] The MIC was identified as the lowest treatment concentration of drug that prevented color change of resazurin from blue to pink/violet, as determined by measuring fluorescence in a black microtiter plate with excitation at 570 nm and emission at 615 nm on a Molecular Devices M5 microplate reader.

C. glutamicum = assay: MIC, resazurin readout, C. glutamicum; assay type: cell-based; conditions: Corynebacterium glutamicum
Method: as §2

E. coli BW25113ΔtolC = assay: MIC by broth microdilution, E. coli BW25113ΔtolC; assay type: cell-based; conditions: Escherichia coli
Method: as §1, with “A 50 μL portion of inoculum was added to a treatment plate containing 2-fold serial dilutions of compound in MHB (50 μL of treatment/well) to lend a final total volume of 100 μL/well and a final inoculum density of ˜5×10^5 CFU/ml. The completed assay plate was sealed with Parafilm, placed in a lidded plastic tray lined with moistened paper towels, and incubated at 37° C. for approximately 20 hours.” left out, “If a different plate or media type was used for a particular test, this is noted below the respective table.” left out

S. aureus USA400 (MRSA) = assay: MIC by broth microdilution, S. aureus USA400 (MRSA); assay type: cell-based; conditions: Staphylococcus aureus
Method: as §1, with “A 50 μL portion of inoculum was added to a treatment plate containing 2-fold serial dilutions of compound in MHB (50 μL of treatment/well) to lend a final total volume of 100 μL/well and a final inoculum density of ˜5×10^5 CFU/ml. The completed assay plate was sealed with Parafilm, placed in a lidded plastic tray lined with moistened paper towels, and incubated at 37° C. for approximately 20 hours.” left out, “If a different plate or media type was used for a particular test, this is noted below the respective table.” left out

A. baumannii ATCC 19606 = assay: MIC by broth microdilution, A. baumannii ATCC 19606; assay type: cell-based; conditions: Acinetobacter baumannii, ATCC19606
Method: as §1, with “A 50 μL portion of inoculum was added to a treatment plate containing 2-fold serial dilutions of compound in MHB (50 μL of treatment/well) to lend a final total volume of 100 μL/well and a final inoculum density of ˜5×10^5 CFU/ml. The completed assay plate was sealed with Parafilm, placed in a lidded plastic tray lined with moistened paper towels, and incubated at 37° C. for approximately 20 hours.” left out, “If a different plate or media type was used for a particular test, this is noted below the respective table.” left out

M. abscessus = assay: MIC, resazurin readout, M. abscessus; assay type: cell-based; conditions: Mycobacteroides abscessus
Method: as §2

E. coli BW25113 = assay: MIC by broth microdilution, E. coli BW25113; assay type: cell-based; conditions: Escherichia coli
Method: as §1, with “A 50 μL portion of inoculum was added to a treatment plate containing 2-fold serial dilutions of compound in MHB (50 μL of treatment/well) to lend a final total volume of 100 μL/well and a final inoculum density of ˜5×10^5 CFU/ml. The completed assay plate was sealed with Parafilm, placed in a lidded plastic tray lined with moistened paper towels, and incubated at 37° C. for approximately 20 hours.” left out, “If a different plate or media type was used for a particular test, this is noted below the respective table.” left out

[3] = system: E. coli NCTC 13846 (colistin-resistant); assay: MIC by broth microdilution, E. coli NCTC 13846; assay type: cell-based; conditions: Escherichia coli, NCTC13846
Method: as §1, with “A 50 μL portion of inoculum was added to a treatment plate containing 2-fold serial dilutions of compound in MHB (50 μL of treatment/well) to lend a final total volume of 100 μL/well and a final inoculum density of ˜5×10^5 CFU/ml. The completed assay plate was sealed with Parafilm, placed in a lidded plastic tray lined with moistened paper towels, and incubated at 37° C. for approximately 20 hours.” left out, “If a different plate or media type was used for a particular test, this is noted below the respective table.” left out

[4] = system: S. aureus USA400 (MRSA), MW2; assay: Minimum Bacterial Eradication Concentration (MBEC) assay; assay type: cell-based
E. coli 25922 = assay: Time-kill kinetics against E. coli 25922 (FIG. 2); assay type: cell-based
E. coli UTI89 = assay: MIC by broth microdilution, E. coli UTI89; assay type: cell-based; conditions: Escherichia coli
Method: as §1, with “A 50 μL portion of inoculum was added to a treatment plate containing 2-fold serial dilutions of compound in MHB (50 μL of treatment/well) to lend a final total volume of 100 μL/well and a final inoculum density of ˜5×10^5 CFU/ml. The completed assay plate was sealed with Parafilm, placed in a lidded plastic tray lined with moistened paper towels, and incubated at 37° C. for approximately 20 hours.” left out, “If a different plate or media type was used for a particular test, this is noted below the respective table.” left out

[5] = S. aureus (ATCC 29213), Mueller Hinton Broth, polypropylene plate
[6] = Staphylococcus aureus, ATCC29213, 20 h, S. aureus (ATCC 29213), Mueller Hinton Broth, polypropylene plate, read-out: MIC, Antibiotic Alone
[7] = S. aureus (ATCC 29213), Mueller Hinton Broth, polypropylene plate, read-out: MIC, Antibiotic Alone
[8] = S. aureus (ATCC 29213), cation-adjusted MHB2, polystyrene microwell plate (Costar 3370)

Compound | MIC, Antibiotic +NH2-triguan-6C (S. aureus ATCC 29213 [1]; [5]) | MIC, Antibiotic +NO2-triamine-2C (S. aureus ATCC 29213 [1]; [5]) | MIC, Antibiotic +NO2-triamine-6C (S. aureus ATCC 29213 [1]; [5]) | MIC (S. aureus ATCC 29213 [1]; [6]) | MIC (S. aureus ATCC 29213 [1]; [7]) | Literature MIC (S. aureus ATCC 29213 [2]) | also measured
O=C1CN(/N=C/c2ccc([N+](=O)[O-])o2)C(=O)N1 [Nitrofurantoin] | 128 µM (≈ 30.5 µg/mL) | 256 µM (≈ 61 µg/mL) | 256 µM (≈ 61 µg/mL) | 128 µM (≈ 30.5 µg/mL) | – | – | –
CC1(C)S[C@@H]2[C@H](NC(=O)Cc3ccccc3)C(=O)N2[C@H]1C(=O)O [Penicillin G] | 2 µM (≈ 0.669 µg/mL) | 4 µM (≈ 1.34 µg/mL) | 4 µM (≈ 1.34 µg/mL) | – | 2 µM (≈ 0.669 µg/mL) | 0.084 to 5.6 µM | –
CO[C@H]1/C=C/O[C@@]2(C)Oc3c(C)c(O)c4c(O)c(c(/C=N/N5CCN(C)CC5)c(O)c4c3C2=O)NC(=O)/C(C)=C\C=C\[C@H](C)[C@H](O)[C@@H](C)[C@@H](O)[C@@H](C)[C@H](OC(C)=O)[C@@H]1C [Rifampicin] | 0.016 µM (≈ 0.0132 µg/mL) | 0.016 µM (≈ 0.0132 µg/mL) | 0.016 µM (≈ 0.0132 µg/mL) | 0.016 µM (≈ 0.0132 µg/mL) | – | – | –
CN(C)[C@@H]1C(O)=C(C(N)=O)C(=O)[C@@]2(O)C(O)=C3C(=O)c4c(O)cccc4[C@@](C)(O)[C@H]3C[C@@H]12 [Tetracycline] | – | – | – | – | – | – | MIC, Antibiotic +NH2-triguan-6C (S. aureus ATCC 29213 [1]; [8]): 2 µM (≈ 0.889 µg/mL); MIC, Antibiotic +NO2-triamine-2C (S. aureus ATCC 29213 [1]; [8]): 2 µM (≈ 0.889 µg/mL); MIC, Antibiotic +NO2-triamine-6C (S. aureus ATCC 29213 [1]; [8]): 2 µM (≈ 0.889 µg/mL); MIC (S. aureus ATCC 29213 [1]; Staphylococcus aureus, ATCC29213, 20 h, S. aureus (ATCC 29213), cation-adjusted MHB2, polystyrene microwell plate (Costar 3370), read-out: MIC, Antibiotic Alone): 2 µM (≈ 0.889 µg/mL)
CN[C@H](CC(C)C)C(=O)N[C@H]1C(=O)N[C@@H](CC(N)=O)C(=O)N[C@H]2C(=O)N[C@H]3C(=O)N[C@H](C(=O)N[C@H](C(=O)O)c4cc(O)cc(O)c4-c4cc3ccc4O)[C@H](O)c3ccc(c(Cl)c3)Oc3cc2cc(c3O[C@@H]2O[C@H](CO)[C@@H](O)[C@H](O)[C@H]2O[C@H]2C[C@](C)(N)[C@H](O)[C@H](C)O2)Oc2ccc(cc2Cl)[C@H]1O [Vancomycin] | 1 µM (≈ 1.45 µg/mL) | 1 µM (≈ 1.45 µg/mL) | 0.5 to 1 µM | – | – | 0.34 to 1.4 µM | MIC (K. pneumoniae BAA-2146): > 256 µM; MIC (E. coli ATCC 25922): 128 µM (≈ 186 µg/mL); MIC (M. smegmatis): 8 to 16 µM (≈ 11.6 to 23.2 µg/mL); MIC (C. glutamicum): 0.25 µM (≈ 0.362 µg/mL); MIC (E. coli BW25113ΔtolC): 128 to 256 µM (≈ 186 to 371 µg/mL); MIC (S. aureus USA400 (MRSA)): 1 µM (≈ 1.45 µg/mL); MIC (A. baumannii ATCC 19606): 128 µM (≈ 186 µg/mL); MIC (M. abscessus): 64 µM (≈ 92.8 µg/mL); MIC (E. coli BW25113): 128 µM (≈ 186 µg/mL); MIC [3]: 64 to 128 µM (≈ 92.8 to 186 µg/mL); MIC (S. aureus ATCC 29213 [1]; Staphylococcus aureus, ATCC29213): 0.5 to 1 µM (≈ 0.725 to 1.45 µg/mL); MIC (S. aureus ATCC 29213 [1]; Staphylococcus aureus, ATCC29213, 20 h, read-out: MIC, Antibiotic Alone): 0.5 to 1 µM (≈ 0.725 to 1.45 µg/mL); MBEC [4]: >512 µM; Concentration at which effective in time-kill (E. coli 25922): 256 µM; MIC (E. coli UTI89): 128 µM (≈ 186 µg/mL)
Gentamicin | 0.5 µM | 0.5 µM | 1 µM | – | 0.5 µM | 0.26 to 2.1 µM | –
